Data on nine molecules can be found in patent US10875845B2, “Compounds and methods for the treatment of ocular disorders” (Azura Ophthalmics Ltd., priority 2019, dated 2020).

For data set [1], the system named is Rabbit Cornea Homogenate. The experiment in a line: Rabbit Cornea Homogenate Stability Assay (rabbit cornea esterase assay). The settings on record: 37° C. Format: in vitro ADME. How it is done: Determining Rabbit Cornea Homogenate stability of the test compounds was performed using HPLC-MS. The assay was performed at two concentrations of Rabbit Cornea Homogenate (0.15 mg/ml and 0.45 mg/ml total protein) so that any hydrolysis observed could be assigned as esterase dependent or not.
Five rabbit corneas (e.g. New Zealand Whites) of approx. 50 mg each were sliced and scraped with a scalpel and tweezers until reduced to small (1-3 mm), thin pieces. These were transferred into a tared vial and accurately weighed, then diluted with 10 volumes aqueous PBS pH7.4
Sample was cooled intermittently on ice and shear homogenized for 3 minutes, then centrifuged for 3 min at 3000 rpm. The supernatant was pipetted off into a vial, and total protein concentration determined at 280 nm. Sample was stored at −78° C.
10 mM Compound stocks were diluted to 100 μM in a 96 deep-well plate: 10 μl of 10 mM Compound stock was added to 990 μl 50 mM HEPES, pH7.5 buffer.
Compounds were further diluted to 10 μM: 100 μl of 100 μM compound was added to 900 μl 50 mM HEPES, pH7.5 buffer.
Esterase homogenate was diluted to 300 ng/μl and 900 ng/μl
A heater shaker was set to 37° C. Into a suitable 96 well plate (Run Plate), 75 μl of 300 or 900 ng/μl esterase homogenate was pipetted into each of the required wells (2 min, 5 min, 10 min, 20 min and 45 min). The plate was sealed and then warmed at 37° C. for 5 min. Another 96 well PCR plate is put on ice (Kill Plate). To this was added 100 μl of MeCN to each well, labelled 0 min, 2 min, 5 min, 10 min, 20 min and 45 min. The plate was covered to minimise evaporation. For the T=0 sample only, to the 100 μl cold MeCN stop solution was added 50 μl of 300 or 900 ng/μl esterase homogenate followed by 50 μl of 10 μM compound solution For the remaining time points, 75 μl of 10 μM compound solution was added to the Run Plate starting from T=45 min row and ending with T=2 min row. At the appropriate time point, 100 μl of the assay mixture was added to the matching kill plate well containing 100 μl of cold MeCN. Samples were analysed as soon as practicable by LCMS (Waters Xevo TQ-S or Micromass Ultima).
Parent conjugate and parent concentrations were determined against appropriate standard response curves and the half-life (T1/2) of the parent conjugate was calculated using the peak area of the parent conjugate at each time point in the linear region of the log—linear plot.

Data set [2] in a line: Aqueous Hydrolysis Stability Assay. Format: physicochemical. Particulars: 100 μM in 50 mM HEPES pH 7.5 buffer or 1:1 Acetonitrile:Water, room temperature. The procedure:
Determination of aqueous stability of the test compounds was performed using HPLC-MS. A test compound 10 mM stock solution was prepared in DMSO. 10 μl of the DMSO stock solution was dissolved in 990 μl of 50 mM HEPES pH 7.5 buffer or 1:1 (v/v) of Acetonitrile:Water to make a 100 μM solution. Final DMSO concentration was 1%. The solution was kept at room temperature and injected without delay into the LCMS (Waters Xevo TQ-S or Micromass Ultima). Additional injections were performed at appropriate time points.
Half-life (T1/2) of the parent conjugate was calculated using the peak area of the parent conjugate at each time point in the linear region of the log—linear plot.

Where [3] appears, read: Cornea Homogenate Conc 0.15 mg/mL.
Where [4] appears, read: Cornea Homogenate Conc 0.45 mg/mL.

Take `CCC(=O)OC(C)OC(=O)[C@H](Cc1cccc(S(C)(=O)=O)c1)NC(=O)c1c(Cl)cc2c(c1Cl)CCN(C(=O)c1ccc3ccoc3c1)C2` (stereo partly drawn) [Comp 15, 1-(propionyloxy)ethyl (2S)-2-(2-(benzofuran-6-carbonyl)-5,7-dichloro-1,2,3,4-tetrahydroisoquinoline-6-carboxamido)-3-(3-(methylsulfonyl)phenyl) propanoate]: in data set [1] (setting [3]), the “API Formation rate” value is given as “d (API formation rate>1.5%/min)” and the “Esterase % Lifitegrast formation at 45 min” value is reported as “C (percent API formation 51% to 75%)”. Besides, in data set [1] (setting [4]), the “API Formation rate” value was “d (API formation rate>1.5%/min)” and the “Esterase % Lifitegrast formation at 45 min” value was “D (percent API formation>75%)”. The “Hydrolytic % Lifitegrast formation at [time]” value in data set [2] (at 45 min) was “B [45 min] (percent API formation 1.5-4%)”.
With `CC(OC(=O)C(C)C)OC(=O)[C@H](Cc1cccc(S(C)(=O)=O)c1)NC(=O)c1c(Cl)cc2c(c1Cl)CCN(C(=O)c1ccc3ccoc3c1)C2` (stereo partly drawn) [Comp 16, 1-(isobutyryloxy)ethyl (2S)-2-(2-(benzofuran-6-carbonyl)-5,7-dichloro-1,2,3,4-tetrahydroisoquinoline-6-carboxamido)-3-(3-(methylsulfonyl)phenyl) propanoate], in data set [1] (setting [3]), the “API Formation rate” value was “d (API formation rate>1.5%/min)” and the “Esterase % Lifitegrast formation at 45 min” value is recorded as “D (percent API formation>75%)”. Further, in data set [1] (setting [4]), the “API Formation rate” value is listed as “d (API formation rate>1.5%/min)” and the “Esterase % Lifitegrast formation at 45 min” value is reported as “D (percent API formation>75%)”. Moreover, the “Hydrolytic % Lifitegrast formation at [time]” value in data set [2] (at 142 min) is “C [142 min] (percent API formation>4%)”.
Take `CC(OC(=O)OCC(COC(=O)C(C)(C)C)COC(=O)C(C)(C)C)OC(=O)[C@H](Cc1cccc(S(C)(=O)=O)c1)NC(=O)c1c(Cl)cc2c(c1Cl)CCN(C(=O)c1ccc3ccoc3c1)C2` (stereo partly drawn) [Comp 12, 2-((8S)-10-(2-(benzofuran-6-carbonyl)-5,7-dichloro-1,2,3,4-tetrahydroisoquinolin-6-yl)-5-methyl-8-(3-(methylsulfonyl)benzyl)-3,7,10-trioxo-2,4,6-trioxa-9-azadecyl)propane-1,3-diyl bis(2,2-dimethylpropanoate)]: in data set [1] (setting [3]), the “API Formation rate” value is “a (API formation rate<0.5%/min)” and the “Esterase % Lifitegrast formation at 45 min” value is recorded as “A (percent active pharmaceutical ingredient (API) formation<25%)”. In addition, in data set [1] (setting [4]), the “API Formation rate” value is recorded as “a (API formation rate<0.5%/min)” and the “Esterase % Lifitegrast formation at 45 min” value is reported as “A (percent active pharmaceutical ingredient (API) formation<25%)”. Also, in data set [2] (at 142 min), the “Hydrolytic % Lifitegrast formation at [time]” value is “B [142 min] (percent API formation 1.5-4%)”.
With `CC(OC(=O)OCC1COC(C)(C)OC1)OC(=O)[C@H](Cc1cccc(S(C)(=O)=O)c1)NC(=O)c1c(Cl)cc2c(c1Cl)CCN(C(=O)c1ccc3ccoc3c1)C2` (stereo partly drawn) [Comp 9, 1-((((2,2-dimethyl-1,3-dioxan-5-yl)methoxy)carbonyl)oxy) ethyl (2S)-2-(2-(benzofuran-6-carbonyl)-5,7-dichloro-1,2,3,4-tetrahydroisoquinoline-6-carboxamido)-3-(3-(methylsulfonyl)phenyl) propanoate], the “API Formation rate” value in data set [1] (setting [3]) was “b (API formation rate 0.5-1.0%/min)”; in data set [1] (setting [4]), “d (API formation rate>1.5%/min)”. Besides, the “Esterase % Lifitegrast formation at 45 min” value is “B (percent API formation 25% to 50%)” in data set [1] (setting [3]) and “C (percent API formation 51% to 75%)” in data set [1] (setting [4]). Also, the “Hydrolytic % Lifitegrast formation at [time]” value in data set [2] (at 142 min) is “B [142 min] (percent API formation 1.5-4%)”.
On to `CC(OC(=O)OC(C)(C)C)OC(=O)[C@H](Cc1cccc(S(C)(=O)=O)c1)NC(=O)c1c(Cl)cc2c(c1Cl)CCN(C(=O)c1ccc3ccoc3c1)C2` (stereo partly drawn) [Comp 6, 1-((tert-butoxycarbonyl)oxy)ethyl (2S)-2-(2-(benzofuran-6-carbonyl)-5,7-dichloro-1,2,3,4-tetrahydroisoquinoline-6-carboxamido)-3-(3-(methylsulfonyl)phenyl) propanoate], for which, in data set [1] (setting [3]), the “API Formation rate” value is on record as “a (API formation rate<0.5%/min)” and the “Esterase % Lifitegrast formation at 45 min” value is recorded as “A (percent active pharmaceutical ingredient (API) formation<25%)”. Besides, in data set [1] (setting [4]), the “API Formation rate” value is on record as “b (API formation rate 0.5-1.0%/min)” and the “Esterase % Lifitegrast formation at 45 min” value is on record as “B (percent API formation 25% to 50%)”. Moreover, in data set [2] (at 142 min), the “Hydrolytic % Lifitegrast formation at [time]” value was “C [142 min] (percent API formation>4%)”.
Regarding `CC(OC(=O)[C@H](Cc1cccc(S(C)(=O)=O)c1)NC(=O)c1c(Cl)cc2c(c1Cl)CCN(C(=O)c1ccc3ccoc3c1)C2)OC(=O)[C@@H](C)O` (stereo partly drawn) [Comp 18, 1-(((R)-2-hydroxypropanoyl)oxy) ethyl (2S)-2-(2-(benzofuran-6-carbonyl)-5,7-dichloro-1,2,3,4-tetrahydroisoquinoline-6-carboxamido)-3-(3-(methylsulfonyl)phenyl) propanoate], the “API Formation rate” value in data set [1] (setting [3]) is “c (API formation rate 1.0-1.5%/min)”; in data set [1] (setting [4]), “d (API formation rate>1.5%/min)”. Also, the figures for the “Esterase % Lifitegrast formation at 45 min” value in data set [1] (setting [3]) and in data set [1] (setting [4]) were “C (percent API formation 51% to 75%)” and “D (percent API formation>75%)”, respectively. For the same molecule, the “Hydrolytic % Lifitegrast formation at [time]” value in data set [2] (at 45 min) is “C [45 min] (percent API formation>4%)”.
For `CC(OC(=O)OCC(COC(=O)[C@@H](C)O)COC(=O)[C@@H](C)O)OC(=O)[C@H](Cc1cccc(S(C)(=O)=O)c1)NC(=O)c1c(Cl)cc2c(c1Cl)CCN(C(=O)c1ccc3ccoc3c1)C2` (stereo partly drawn) [Comp 13, 2-((8S)-10-(2-(benzofuran-6-carbonyl)-5,7-dichloro-1,2,3,4-tetrahydroisoquinolin-6-yl)-5-methyl-8-(3-(methylsulfonyl)benzyl)-3,7,10-trioxo-2,4,6-trioxa-9-azadecyl)propane-1,3-diyl (2R,2'R)-bis(2-hydroxypropanoate)], the “API Formation rate” value in data set [1] (setting [3]) and in data set [1] (setting [4]) was “a (API formation rate<0.5%/min)” each time. The “Esterase % Lifitegrast formation at 45 min” value in data set [1] (setting [3]) and in data set [1] (setting [4]) was “A (percent active pharmaceutical ingredient (API) formation<25%)” throughout.
As for `Cc1ccccc1OCC(=O)N[C@@H](CC(C)C)C(=O)N[C@@H](Cc1ccc(OC(=O)N2CCC(C(N)=O)CC2)cc1)C(=O)OC(C)OC(=O)OC(C)C` (stereo partly drawn) [Comp 2, 4-((2S)-3-(1-((isopropoxycarbonyl)oxy)ethoxy)-2-((S)-4-methyl-2-(2-(o-tolyloxy)acetamido)pentan-amido)-3-oxopropyl)phenyl 4-carbamoylpiperidine-1-carboxylate], in data set [1] (setting [3]), the “API Formation rate” value is reported as “b (API formation rate 0.5-1.0%/min)” and the “Esterase % Lifitegrast formation at 45 min” value was “B (percent API formation 25% to 50%)”. Besides, in data set [1] (setting [4]), the “API Formation rate” value is recorded as “c (API formation rate 1.0-1.5%/min)” and the “Esterase % Lifitegrast formation at 45 min” value is “C (percent API formation 51% to 75%)”. Moreover, the “Hydrolytic % Lifitegrast formation at [time]” value in data set [2] (at 192 min) is “A [192 min] (percent active pharmaceutical ingredient (API) formation<1.5%)”.
For `COC(=O)OC(C)OC(=O)[C@H](Cc1cccc(S(C)(=O)=O)c1)NC(=O)c1c(Cl)cc2c(c1Cl)CCN(C(=O)c1ccc3ccoc3c1)C2` (stereo partly drawn) [Comp 3, 1-((methoxycarbonyl)oxy) ethyl (2S)-2-(2-(benzofuran-6-carbonyl)-5,7-dichloro-1,2,3,4-tetrahydroisoquinoline-6-carboxamido)-3-(3-(methylsulfonyl)phenyl) propanoate], in data set [1] (setting [3]), the “API Formation rate” value is reported as “d (API formation rate>1.5%/min)” and the “Esterase % Lifitegrast formation at 45 min” value is “B (percent API formation 25% to 50%)”. In data set [1] (setting [4]), the “API Formation rate” value is “b (API formation rate 0.5-1.0%/min)” and the “Esterase % Lifitegrast formation at 45 min” value is “C (percent API formation 51% to 75%)”. For the same molecule, in data set [2] (at 45 min), the “Hydrolytic % Lifitegrast formation at [time]” value is “B [45 min] (percent API formation 1.5-4%)”.
